In data set [1] the test system is Ω-amidase in corn leaves. Description: Treatment of corn leaves with ω-amidase inhibitor DON (foliar spray). It is filed as in vivo. How it is done:
(§1) HPLC Assay for 2-oxoglutaramate: HPLC was used to assay 2-oxoglutaramate, following a modification of Calderon et al., 1985, J Bacteriol 161(2): 807-809. Briefly, 2-oxoglutaramate was extracted from plant tissue in distilled de-ionized water acidified to less than pH 2.0 with HCl using a weight to volume ratio of 2:1. 2-Oxoglutaramate was detected and quantified by HPLC, using an ION-300 7.8 mm ID×30 cm L column, with a mobile phase in 0.01NH2SO4, a flow rate of approximately 0.2 ml/min, at 40° C. Injection volume is approximately 20 and retention time between about 38 and 39 minutes. Detection is achieved with 210 nm UV light. Authentic 2-oxoglutaramate was used to calibrate the assay.
(§2) Ω-amidase activity was determined using the 96-well plate assay as described in Krasnikov et al., 2009, Analytical Biochemistry 391: 144-150.
(§3) Columbia nutrient solution was utilized (Knight and Weissman, 1982, Plant Physiol. 70: 1683).
Plants were grown in sand at 24° C. using a 16 hour/day light and 8 hour/day dark photoperiod. Seeds were germinated in the sand and allowed to grow for 9-14 days after seedling emergence. Seedlings (1 per 3 inch pot) were provided nutrients daily. The top of each pot was covered with Saran plastic film, with a slit cut to allow the seedlings room to emerge, in order to prevent treatment solution from reaching the soil. Leaves were treated by spraying DON treatment/nutrient solution twice daily. The DON treatment/nutrient solution contained 1 microgram/ml DON, 50 micoliters/liter SILWET L77 (a surfactant) and 0.02 vol/vol % glycerol (a humectant) at pH 6.3, dissolved in nutrient solution. Control plants were sprayed daily with the same solution without DON. An airbrush was used to apply the solutions until drip. Plants were sacrificed and analyzed for fresh weight, ω-amidase activity, and 2-oxoglutaramate concentrations in leaf and root tissue 14 days after initiation of treatment.

The subject of data set [2] is Ω-amidase in bean roots. Description: Treatment of pole bean roots with ω-amidase inhibitor DON (hydroponic). It is filed as in vivo. As for the experimental part:
as §1, §2, §3
(§4) Plants were grown hydroponically at 24° C. using a 16 hour/day light and 8 hour/day dark photoperiod. Seeds were first germinated and seedlings were grown for 9 days, at which time the individual seedlings were suspended with their roots in the nutrient solution (600 ml of nutrient, pH 6.3) in an 800 ml beaker covered with aluminum foil, with a slit for the seedlings, to prevent algal growth. The beakers were aerated with air provided by a small pump and delivered into the solution through a glass Pasteur pipette. For the treatments, DON was added to the nutrient solution to a final concentration of 1 microgram per ml. Thus DON was supplied continuously to the treated seedlings. The controls were grown in the same nutrient solution without DON. The solutions were refreshed every third day. Plants were sacrificed and analyzed for fresh weight, ω-amidase activity, and 2-oxoglutaramate concentrations in leaf and root tissue 14 days after initiation of treatment.

Data set [3] has as its system Ω-amidase in corn roots. Description: Treatment of sweet corn roots with ω-amidase inhibitor DON (hydroponic). It is filed as in vivo. As for the experimental part: as §1, §2, §3, §4
For data set [4], the system named is GPT (glutamine phenylpyruvate transaminase), substrate glutamine. Description: Kinetic analysis of GPT substitution mutants expressed in E. coli. The class given is biochemical, Arabidopsis. Particulars: enzyme expressed in E. coli. As for the experimental part:
Maximal velocity was determined using the formula: Vmax=Kcat[E]tot. The apparent unimolecular rate constant kcat is also called turnover number and denotes the maximum number of enzymatic reactions catalyzed per second.
This mutant GPT enzyme may be expected to produce more product, the 2-oxoglutaramate, per unit time than the wild type GPT when the concentration of the substrate glutamine is present in millimolar or greater quantities, thus assuring that the […] is saturating.

Setting [5] is: leaf treatment with DON, average of treated plants.
Where [6] appears, read: leaves sprayed twice daily with 1 microgram/ml DON, 14 days (Table 17).
[7] abbreviates: bean, root treatment 1 microgram per ml DON, 14 days.
The mark [8] stands for this setting: root treatment 1 microgram per ml DON, 14 days.

Several values for one entry are separate records, joined by “and”; a condition that tells them apart may be missing. Identical values can stand only once.

This note sets out measurements from US9068194B2, “Increasing plant growth by modulating omega-amidase expression in plants” (Los Alamos National Security, LLC, priority 2010, dated 2015).

Turning to `[N-]=[N+]=CC(=O)CC[C@H](N)C(=O)O` [DON, 6-diazo-5-oxo-nor-leucine], the “corn plant fresh weights versus untreated” value in data set [1] (leaf treatment with DON) is reported as “near doubling”. In data set [1] (leaf treatment with DON), the “increase of 2-oxoglutaramate in leaves over untreated plants” value was “more than 7 fold”. Further, the “leaf ω-amidase activity relative to untreated plants” value in data set [1] (leaf treatment with DON) is on record as “about 50%”. Besides, the “Amidase activity Leaf” value in data set [1] (setting [5]) is 0.135 μmole/gfw/hr. In addition, the “Whole Plant Fresh Wt, Average” value in data set [1] (setting [5]) was 21.4 g. Besides, the “2-Oxoglutaramate Concentration” value in data set [1] (leaf treatment with DON, average of treated plants (Table 18)) amounted to 838.8 nmoles/gfwt. Further, the “Whole Plant Fresh Wt” value in data set [1] (leaf treatment with DON, individual treated plants) was 20.9 g and 19.2 g and 24.3 g. Besides, the “2-OGM LEAF” value is on record as 753.9 nmoles/gfwt in data set [1] (setting [6]); 279 nmoles/gfwt in data set [2] (setting [7]); 300 nmoles/gfwt in data set [3] (root treatment 1 microgram per ml DON, 14 days, 2-OGM = 2-oxoglutaramate). Also, the “2-OGM ROOT” value in data set [1] (setting [6]) worked out at 126.8 nmoles/gfwt; in data set [2] (setting [7]), 1586 nmoles/gfwt; in data set [3] (setting [8]), 2288 nmoles/gfwt. Further, the “LEAF/ROOT RATIO (2-OGM)” value came to 5.0 in data set [1] (setting [6]), 0.18 in data set [2] (setting [7]) and 0.13 in data set [3] (setting [8]). Besides, the ω-amidase activity entry is reported as “None of the DON treated plants had detectable levels of ω-amidase activity” in data set [2] (bean, continuous DON treatment of roots) and “None of the DON treated plants had detectable levels of ω-amidase activity” in data set [3] (continuous DON treatment of roots). In addition, the growth result in data set [2] (bean, continuous DON treatment of roots, versus untreated control plants) is recorded as “severely stunted growth”; in data set [3] (continuous DON treatment of roots, versus untreated control plants), “severely stunted growth”. Moreover, the “% INCREASE IN FWT” value in data set [2] (bean, roots in nutrient solution with 1 microgram per ml DON continuously, 14 days after initiation of treatment) is listed as 198%; in data set [3] (roots in nutrient solution with 1 microgram per ml DON continuously, 14 days after initiation of treatment), 174%. The “increase of 2-oxoglutaramate in roots” value in data set [2] (beans, root treatment with DON, versus control) is listed as 15 fold; in data set [3] (root treatment with DON, versus control), “over 30 fold”.

B1: GPT/F:V mutant: mutant GPT from the natural Arabidopsis GPT, substituting V (valine) for the F (phenylalanine) residue in NLGQGFP; expressed in E. coli (protein)
chain: MYLDINGVMIKQFSFKASLLPFSSNFRQSSAKIHRPIGATMTTVSTQNESTQKPVQVAKRLEKFKTTIFTQMSILAVKHGAINLGQGVPNFDGPDFVKEAAIQAIKDGKNQYARGYGIPQLNSAIAARFREDTGLVVDPEKEVTVTSGCTEAIAAAMLGLINPGDEVILFAPFYDSYEATLSMAGAKVKGITLRPPDFSIPLEELKAAVTNKTRAILMNTPHNPTGKMFTREELETIASLCIENDVLVFSDEVYDKLAFEMDHISIASLPGMYERTVTMNSLGKTFSLTGWKIGWAIAPPHLTWGVRQAHSYLTFATSTPAQWAAVAALKAPESYFKELKRDYNVKKETLVKGLKEVGFTVFPSSGTYFVVADHTPFGMENDVAFCEYLIEEVGVVAIPTSVFYLNPEEGKNLVRFAFCKDEETLRGAIERMKQKLKRKV
modifications: synthetic Arabidopsis glutamine phenylpyruvate transaminase (GPT) mutant GPT/FV with V substitution in conserved region at position 88
notes: mutant GPT from the natural Arabidopsis GPT, substituting V (valine) for the F (phenylalanine) residue in NLGQGFP; expressed in E. coli
Take B1: in data set [4], the Michaelis constant (Km) turned out to be 750 µM and the “increase of Vmax over the wild type” value is 20%. Besides, in data set [4] (same amount of protein), the Vmax is 6.04.

The Km is the concentration of substrate that gives half-maximal velocity.
